US7968093B2, “Fully human antibodies directed against the human insulin-like growth factor-1 receptor” (ImClone LLC, priority 2003, dated 2011)

Key:
MAPK = experiment: IGF-I mediated MAPK phosphorylation, western blot; type: cell-based, human; conditions: MCF7 cells; IGF-I stimulated
Procedure: (§1) To visualize the inhibitory effect of the anti-IGF-IR antibodies on IGF-I signaling, receptor auto-phosphorylation and downstream effector molecule phosphorylation analysis was performed in the presence or absence of antibody A12 or 2F8. The MCF7 human breast cancer cell line was selected for use due to its high IGF-IR density. Cells were plated into 10 cm or 6 well culture dishes and grown to 70-80% confluence. The monolayers were then washed twice in PBS and cultured overnight in serum free defined medium. Anti-IGF-IR antibody was then added in fresh serum-free media (100 nM-10 nM) and incubated cells 30 minutes before addition of ligand (10 nM). Cells were incubated with ligand for 10 minutes, then placed on ice and washed with ice-cold PBS. […] Tyrosine phosphorylated protein was detected on the blot using an anti-p-tyrosine antibody (Cell Signaling #9411) and an anti-mouse-HRP secondary antibody. IGF-IR was detected with monoclonal antibody C-20 (Santa Cruz). For Akt phosphorylation, phospho-Akt was detected with antibody #559029 and total Akt with #559028 (BD Pharmingen). For MAPK phosphorylation, phospho-p44/42 was detected with #9101 and total p44/42 with #9102 (Cell Signaling Tech.). […]

Akt = experiment: IGF-I mediated Akt phosphorylation, western blot; type: cell-based, human; conditions: MCF7 cells; IGF-I stimulated; A12 even at 10 nM
Procedure: as §1

IGF-IR [1] = target: T1, IGF-IR (Homo sapiens, UniProt P08069); experiment: BIAcore binding kinetics on immobilized soluble IGF-IR; parameters: recombinant extracellular portion of human IGF-IR was used to screen; conditions: full IgG, BIACORE 3000
Procedure: Binding kinetic analysis was performed on 2F8 IgG using a BIAcore unit.
Binding results were determined by human IGF-IR ELISA and represent the concentration of titered antibody necessary to achieve 50% binding relative to saturation. Blocking results represent the level of antibody necessary to inhibit 50% binding of ^125I-IGF-I ligand to immobilized human IGF-IR. Affinity was determined by BIAcore analysis according to manufacturer's specifications (Pharmacia BIACORE 3000). Soluble IGF-IR was immobilized on the sensor chips and antibody binding kinetics determined.

MCF7 human breast cancer = experiment: MCF7 xenograft, A12 monotherapy; type: in vivo, nude mice
Procedure: In order to assess its activity on MCF7 tumor growth in vivo, a mouse xenograft tumor model was utilized. MCF7 cells were originally isolated from an estrogen-dependent human tumor and require exogenously added estrogen for maintenance and growth in vivo. Nude mice were implanted with biodegradable estrogen pellets (0.72 mg 17-β-estradiol/pellet, 60 day release). In addition, at the time of subcutaneous tumor cell injection, the mice were also injected in the right flank subcutaneously with 0.5 mg of estradiol in a 50 μl suspension of sesame seed oil. Tumors were allowed to establish a size of approximately 150 mm^3 before antibody treatment was initiated. Antibody was injected at 1 mg, 100 μg, and 10 μg doses every three days and continued for the duration of the experiment. At 29 days, treatment of animals with 1 mg of A12 effected an 89% reduction in tumor growth (FIG. 25). Minimal growth was apparent for the established tumors in this treatment group.

insulin receptor (IR) = target: T2, insulin receptor (IR) (Homo sapiens, UniProt P06213); experiment: Blocking of radiolabeled insulin binding to ZR-75I cells; conditions: ZR-75I breast cancer cells; antibody up to 200 nM
T2 construct: endogenous in cells; host or cells: ZR-75I human breast cancer cells

IGF-IR on MCF7 cells = target: T3, IGF-IR on MCF7 cells (Homo sapiens, UniProt P08069); experiment: IGF-IR surface receptor density by FACS; type: cell-based; conditions: MCF7 cells incubated at 4° C.
T3 construct: endogenous in cells
Procedure: IGF-IR surface receptor density was determined by FACS. […] Cells were washed in ice-cold PBS/5% BSA twice, and 1×10^6 cells were aliquoted to staining tubes and placed on ice. An IGF-IR alpha-polypeptide specific, non-blocking mouse monoclonal antibody (Ab-1, NeoMarkers, Fremont, Calif.), was then incubated with cells at 4° C. for 2 h. After PBS/BSA washes, cells were incubated with anti-mouse IgG phycoerythrin-conjugated secondary antibody (PharMingen, BD Biosciences) for 1 h on ice. After PBS/BSA wash, cells were analyzed by fluorescence-activated cell-sorting assay using a FACSvantage SE flow cytometer (BD Bioscience).

IGF-IR [2] = target: T1, IGF-IR; experiment: Blocking of 125I-IGF-I binding to immobilized soluble IGF-IR; parameters: recombinant extracellular portion of human IGF-IR was used to screen
Procedure: Forty 40 pM of ^125I-IGF-I was then added and the plates incubated an additional 90 minutes. […] Affinity was determined by BIAcore analysis according to manufacturer's specifications (Pharmacia BIACORE 3000). Soluble IGF-IR was immobilized on the sensor chips and antibody binding kinetics determined. […] The activity of A12 remained the same, irrespective of whether the light chain was engineered with a human lambda or kappa class constant region. Antibody A12 engineered with a lambda class light chain was utilized in all subsequent procedures.

[3] = test system: BxPC-3 human pancreatic carcinoma cells; experiment: BxPC-3 xenograft, A12 with CPT-11 or gemcitabine; type: in vivo, athymic nu/nu mice
Procedure: Athymic nu/nu mice were injected subcutaneously with 2×10^6 BxPC-3 human pancreatic carcinoma cells mixed 1:1 with Matrigel. […] All treatments were administered by intraperitoneal injection. Tumor measurements were recorded twice weekly using the formula Volume=(π/6)l×w^2.
At day 18 three animals per group were sacrificed and the tumors resected for midpoint histological evaluation. Treatment and tumor measurements continued on the remaining animals until day 44 with the exception of the TBS group. […] At termination of the study final tumor measurements were recorded, animals sacrificed, and four per group had tumors resected for endpoint histological evaluation.

**Q.** Which results are given for “A12: fully human IgG1 anti-IGF-IR antibody, lambda light chain; VH SEQ ID NO:2, VL SEQ ID NO:10; affinity matured from 2F8”?
**A.** inhibition of MAPK phosphorylation (MAPK): considerably inhibited; inhibition of Akt phosphorylation (Akt): significantly inhibited Akt phosphorylation; Affinity Koff (IGF-IR [1]): Koff = 3.0 × 10^−5; Affinity Kon (IGF-IR [1]): Kon = 7.2 × 10^5; Kd (IGF-IR [1]; read-out: Affinity KD): 41 pM; reduction in tumor growth (MCF7 human breast cancer; 1 mg every three days, at 29 days): 89%; tumor regression (MCF7 human breast cancer; antibody alone 1 mg/dose, continued to termination (50 days)): tumor regression was observed; blocking of insulin binding (insulin receptor (IR)): neither 2F8 nor the high affinity A12 antibody blocked insulin binding; shift of surface IGF-IR fluorescence intensity (IGF-IR on MCF7 cells): shift was not seen; inhibition of radiolabeled IGF-I binding compared with cold ligand (IGF-IR [2]; FIG. 15): to a greater extent than competition with cold ligand; increase in blocking activity of ligand for immobilized receptor, A12 versus 2F8 (IGF-IR [2]; full IgG): at least a three-fold increase; animals with partial tumor regressions ([3]; after five weeks of treatment): 2 of eight; Regressions (individual tumor volumes < day 1 of treatment) ([3]; day 19, animals regressing/animals in group): 2/12; T/C % ([3]; day 19, ip, A12 1 mg 3 times per week, irinotecan 1 mg or gemcitabine 2.5 mg every 7 days): 57%; Regressions (individual tumor volumes < day 1 of treatment) ([3]; day 23): 2/9; T/C % ([3]; day 23, same regimens): 49%; Regressions (individual tumor volumes < day 1 of treatment) ([3]; day 26): 2/9; T/C % ([3]; day 26, same regimens): 40%; Regressions (individual tumor volumes < day 1 of treatment) ([3]; day 30): 2/8; T/C % ([3]; day 30, same regimens): 40%; Regressions (individual tumor volumes < day 1 of treatment) ([3]; day 32): 2/8; T/C % ([3]; day 32, same regimens): 39%; Regressions (individual tumor volumes < day 1 of treatment) ([3]; day 37): 2/8; Regressions (individual tumor volumes < day 1 of treatment) ([3]; day 41): 2/8; Regressions (individual tumor volumes < day 1 of treatment) ([3]; day 44): 2/8
